Reference: the NIST ThermoML archive (doi:10.1016/j.jct.2018.08.005)

Legend:
[1] = molar heat capacity at constant pressure; settings: 100 kPa, Liquid, DSC
[2] = molar heat capacity at constant pressure; xn = mol fraction of the nth substance listed; settings: 100 kPa, Liquid, DSC, x2 = 0

CCOC(F)(C(F)(F)C(F)(F)C(F)(F)F)C(F)(C(F)(F)F)C(F)(F)F (configuration not stated) [2-trifluoromethyl-3-ethoxydodecafluorohexane]
[1]
Settings | molar heat capacity at constant pressure [J/K/mol]
297.91 K | 466.29
307.79 K | 472.92
317.66 K | 479.54
327.54 K | 486.58
337.42 K | 494.03
347.29 K | 500.66
357.17 K | 508.53
367.05 K | 517.23
376.92 K | 523.85
386.8 K | 531.72

CC(C)OC(C)C [diisopropyl ether]
[1]
Settings | molar heat capacity at constant pressure [J/K/mol]
290.5 K | 211.5
295.44 K | 213.44
300.38 K | 215.28
305.32 K | 217.33
310.26 K | 219.37
315.2 K | 221.41
320.13 K | 223.46
325.07 K | 225.5
330.01 K | 227.65
334.95 K | 229.89
339.89 K | 232.04

CC(C)OC(C)C [diisopropyl ether] + CCOC(F)(C(F)(F)C(F)(F)C(F)(F)F)C(F)(C(F)(F)F)C(F)(F)F
[2]
Settings | molar heat capacity at constant pressure [J/K/mol]
290.5 K | 211.5
295.44 K | 213.44
300.38 K | 215.28
305.32 K | 217.33
310.26 K | 219.37
315.2 K | 221.41
320.13 K | 223.46
325.07 K | 225.5
330.01 K | 227.65
334.95 K | 229.89
339.89 K | 232.04
